Reference: patent US20220133702A1, “CYSTIC FIBROSIS TRANSMEMBRANE CONDUCTANCE REGULATOR MODULATORS FOR TREATING AUTOSOMAL DOMINANT POLYCYSTIC KIDNEY DISEASE” (The Johns Hopkins University, priority 2020, published 2022)

Assays:
PN cells = assay: BrdU cell proliferation assay; format: cell-based, mouse; details: 1 and 10 μM, vs DMSO-treated cells
Excerpt: FIG. 3A, FIG. 3B, FIG. 3C, and FIG. 3D show cell proliferation is reduced by VX-809. (FIG. 3A-FIG. 3B) Proliferation in kidneys of Pkd1^fl/fl; Pax8^rtTA; TetO-cre mice. Representative images of Ki67 (a cellular marker for proliferation) staining of PN21 kidney sections from DMSO- and VX-809-treated mice. Arrows indicate Ki67-positive cells. Pictures were acquired with a Zeiss microscope equipped with 20× objective. (FIG. 3C) Summary data for Ki67-positive cells. Columns represent averages±standard errors of DMSO (vehicle)-treated (n=3) and VX-809-treated (n=3) mice. Statistical analysis was performed using a two-tailed Student's t test. (FIG. 3D) Proliferation in PN cells. PN cells were treated with VX-809 or DMSO). The bromodeoxyuridine (BrdU) concentration in the cells was measured by using a BrdU cell proliferation assay kit (Millipore Sigma#2750) according to the manufacturer's protocol. Columns represent averages±SEs of the OD of BrdU at 450/550 […]. Data were analyzed using Student's t-test, with n=5-7. Methods were described previously (62). *P>0.05; **P<0.01;
A hallmark of the cysts in ADPKD is an increase in proliferation in response to cAMP. Therefore, it was determined whether VX-809 would affect proliferation.

[1] = test system: adenylyl cyclase (AC) 6 and AC3 in PN cells; assay: Western blot of adenylyl cyclase expression; format: cell-based, mouse; details: PN cells treated with VX-809
Experimental: FIG. 4A, FIG. 4B, FIG. 4C, FIG. 4D, and FIG. 4E show (FIG. 4A-FIG. 4B) cAMP levels are reduced by VX-809. (FIG. 4A) cAMP levels in mouse tissue were reduced by VX-809. The kidney samples (n=6) analyzed were taken from those depicted in FIG. 1. (FIG. 4B) Confluent PN and PH cells were treated with VX-809 (10 μM) or DMSO for 16 hand then treated with forskolin (100 μM) for 30 min before the cells were harvested for the assay. Columns represent means±SEM. Statistical analysis was performed using a two-tailed Student's t-test. Each set of data is from three individual wells; Note that resting cAMP is greater in PN vs PH cells as previously shown (25). Also note that forskolin caused a large increase in cAMP. A smaller increase occurred with IBMX. However, the increase induced by forskolin alone was similar to that by IBMX plus forskolin. […] (FIG. 4C, FIG. 4D, and FIG. 4E) Adenylyl cyclase expression. (FIG. 4C) Western blot showing the expression of adenylyl cyclase (AC) 6 and AC3 in treated and control PN cells. (FIG. 4D-FIG. 4E) Columns represent means±SEM of the AC3 and AC6 expression. The data were analyzed by non-parametric t-test. The experiment was repeated four times. For all graphs, *P<0.05, **P<0.01, and ***P<0.001;
There are two classes of adenylyl cyclases that are regulated by intracellular Ca^2+: one class is activated, and the other inhibited. […]

GRP78, Ero1, and GADD153 = assay: Western blot of ER stress markers in kidney tissue lysates; format: in vivo, mouse; details: 30 mg/kg BW, cyst-induced mice
Experimental: FIG. 11A. FIG. 11B, FIG. 11C, FIG. 11D, and FIG. 11E show expression of ER stress markers GRP78, Ero1, and GADD in Pkd1-1 mice treated with VX-809. (FIG. 11A & FIG. 11D) Representative Western blot images of GRP78, ErO1, and GADD in lysates of kidney tissue from no cyst induced (ND), cyst induced with doxycycline (D) or cyst induced pkd−/− mice treated with VX-809 (D+VX-809) 30 mg/kg BW. (FIG. 11B, FIG. 11C and FIG. 11E) Columns represent averages±standard errors of GRP78, Ero1, and GADD153 expression. Data were analyzed by non-parametric t-test. n=4 for each treated and control groups. Black lines between lanes represent representative experiments from the same gel but loaded in different lanes. **P<0.01, ***P<0.001;
Given that VX-809 alters an ensemble of Hsps, it was evaluated whether VX-809 alters proteins associated with ER stress. To address this question, the levels of three ER stress-associated proteins were measured, 78-kDa glucose-regulated protein (GRP78), ER oxidoreductin 1 (Ero1) and DNA damage-inducible protein 3 (GADD153), also known as C/EBP homologous protein (CHOP) (37). The results are depicted in FIG. 11 show no changes in GRP78 or Ero1 in response to VX-809.

PC2 = assay: Confocal localization of PC2 with ER, Golgi and PM markers; format: cell-based; details: treated vs control cells, Pearson's correlation with markers
Excerpt: FIG. 17A and FIG. 17B show images of confocal microscopy localization studies of PC2 and localization markers in control and treated cells (FIG. 17A) and graphs showing Pearson's correlation coefficient for PC2 and localization markers in control and VX-809 treated cells (FIG. 17B).
The localization of PC2 and CFTR in control cells was compared to the localization of PC2 and CFTR localization in VX-809 treated cells.

PC2 in Pkd1^RC/RC mice = assay: Immunoblot of PC2 protein in kidney tissue, missense model; format: in vivo, mouse; details: treated daily from one month to 6 months
Experimental: The levels of PC2 protein were analyzed in two mouse models of ADPKD: Pkd1^fl/fl; Pax8^rtTA; TetO-cre, which is PC1 null, and the Pkd1^R3277C/R3277C (pkd1^RC/RC) which has a missense mutation in PC1. Pkd1^RC/RC mice develop a consistent, slowly progressing polycystic kidney disease. Pkd1^RC/RC mice were treated daily with VX-809, beginning at one month, and euthanized at 6 months.
Wild-type mice were treated without doxycycline (Wt), and Pkd1^RC/RC mice were treated with doxycycline plus DMSO (RC) or with doxycycline plus VX809 (RC+VX809), as indicated. Three mice were analyzed for each treatment.
In Pkd1^RC/RC mice, doxycycline-induced cyst formation decreases PC2 protein.

Compound: Cc1ccc(NC(=O)C2(c3ccc4c(c3)OC(F)(F)O4)CC2)nc1-c1cccc(C(=O)O)c1 [VX-809, lumacaftor]
- cell proliferation (BrdU) (PN cells): significantly inhibit cell proliferation
- AC3 levels [1]: decreased
- AC6 regulation [1]: Regulates AC3 but not AC6
- Ero1 level (GRP78, Ero1, and GADD153): no changes
- GADD153 level (GRP78, Ero1, and GADD153): equally dramatic reduction
- GRP78 level (GRP78, Ero1, and GADD153): no changes
- PC2 localization (PC2): statistically significant move of PC2 from the ER to Golgi
- PC2 protein expression (normalized to vinculin) (PC2 in Pkd1^RC/RC mice): higher levels of PC2 expression
